From patent US7678820B2, “Hetero compound” (Astellas Pharma Inc., priority 2006, dated 2010)
Where a name gives a salt, the structure may show the parent alone.

Molecular target: T1, human S1P1 (Homo sapiens, UniProt P21453)
T1 construct: expressed in transfected cells; membrane fraction used
Assay: GTP[γ-35S] bond assay using the membrane of a human S1P1 expressing cell (S1P1 agonist activity)
Format: biochemical
Conditions: membrane of human S1P1 expressing CHO cell; concentration causing 50% of the maximum GTP[γ-35S] reaction
Experimental: 1) Evaluation of a Receptor Agonist Activity by a GTP[γ-^35S] Bond Assay Using the Membrane of a Human S1P1 Expressing Cell
The in vitro S1P1 agonist activity of the compound of the present invention was evaluated by the increase in the functional bonding activity into the G-Protein of a GTP[γ-^35S] using the membrane of a human S1P1 expressing cell. A cDNA encoding a human S1P1 was cloned from a human colorectal cDNA library, and introduced to an expression vector pcDNA3.1 to construct a S1P1-pcDNA3.1. Then, by Lipofectamine 2000 (GIBCO), the S1P1-pcDNA3.1 was transfected into a CHO cell, and cultured in a Ham's F-12 culture medium containing 10% fetal bovine serum, 100 U/mL Penicillin, 100 μg/mL Streptomycin, and 1 mg/mL G418 disulfate, to obtain a stable, G418-resistant strain. The cultured human S1P1 expressing cells were isolated in a 1 mM EDTA/2Na-containing PBS, and disrupted under ice-cooling by a homogenizer made of glass in a 1 mM Tris HCl (pH 7.4) buffer solution containing 0.1 mM EDTA and a […]. It was centrifuged at […], and a supernatant was further centrifuged at 4° C. for 60 min at 100,000×g, and suspended in a 10 mM Tris HCl (pH 7.4) buffer solution containing 1 mM EDTA. The obtained membrane (0.13 mg/mL) and […] GTP[γ-^35S] […] The FilterMate was dried at 50° C. for 60 min, and Microscinti-o (Packard) was added thereto for measurement by a liquids scintillation counter for a microplate (Packard, TOP count). For evaluation of the human S1P1 agonist activity of the compound of the present invention and the comparative compound, the percentages with the rate of a maximum reaction to make the GTP[γ-^35S] bonds saturated in the presence of the compound being set at 100%, and the rate of the reaction of the GTP[γ-^35S] bonds in the absence of the compound being set at 0% was used, a non-linear regression curve was plotted, and a concentration to cause an agonist activity operating 50% of the maximum reaction was defined as an EC50 value (nM).

T1 sequence (P21453 whole entry): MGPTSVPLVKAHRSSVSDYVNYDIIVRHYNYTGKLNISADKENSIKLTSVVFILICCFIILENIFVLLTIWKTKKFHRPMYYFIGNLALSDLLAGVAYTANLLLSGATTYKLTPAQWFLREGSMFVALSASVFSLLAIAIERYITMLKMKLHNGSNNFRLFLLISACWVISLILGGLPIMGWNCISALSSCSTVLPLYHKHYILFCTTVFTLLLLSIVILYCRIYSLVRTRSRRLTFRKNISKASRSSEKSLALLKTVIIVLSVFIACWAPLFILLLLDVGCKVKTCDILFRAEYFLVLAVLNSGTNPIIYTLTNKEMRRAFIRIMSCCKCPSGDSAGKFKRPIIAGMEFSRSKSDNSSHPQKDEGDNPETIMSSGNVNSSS

EC50 [nM]	Structure (SMILES)
5.5	CC(C)Oc1ccc(-c2nc(-c3cccc4c3ccn4CC(N)=O)no2)cc1C(F)(F)F [Example 5, 2-(4-{5-[4-isopropoxy-3-(trifluoromethyl)phenyl]-1,2,4-oxadiazol-3-yl}-1H-indol-1-yl)acetamide]
1.2	NC(=O)Cn1ccc2c(-c3noc(-c4ccc(OC(CF)CF)c(Cl)c4)n3)cccc21 [Example 6, 2-[4-(5-{3-chloro-4-[2-fluoro-1-(fluoromethyl)ethoxy]phenyl}-1,2,4-oxadiazol-3-yl)-1H-indol-1-yl]acetamide]
5.4	CC(C)Oc1ccc(-c2nc(-c3cccc4c3ccn4CC(N)=O)no2)cc1Cl [Example 8]
4.7	C[C@H](Oc1ccc(-c2nc(-c3cccc4c3ccn4CC(N)=O)no2)cc1C(F)(F)F)C(F)(F)F [Example 12, 2-[4-(5-{3-(trifluoromethyl)-4-[(1S)-2,2,2-trifluoro-1-methylethoxy]phenyl}-oxadiazol-3-yl)-1H-indol-1-yl]acetamide]
2.1	CC(=O)N1CCc2c(-c3noc(-c4ccc(OC(C)C(F)(F)F)c(C(F)(F)F)c4)n3)cccc21 (centres unmarked) [Example 15, 1-acetyl-4-{5-[3-(trifluoromethyl)-4-(2,2,2-trifluoro-1-methylethoxy)phenyl]-1,2,4-oxadiazol-3-yl}indoline]
4.7	CC(Oc1ccc(-c2nc(-c3cccc4c3CCN4)no2)cc1C(F)(F)F)C(F)(F)F (centres unmarked) [Example 26, 4-{5-[3-(trifluoromethyl)-4-(2,2,2-trifluoro-1-methylethoxy)phenyl]-1,2,4-oxadiazol-3-yl}indoline]
2.3	CC(Oc1ccc(-c2nc(-c3ccc4nc[nH]c4c3)no2)cc1C#N)C(F)(F)F (centres unmarked) [Example 54]
3.8	CC(Oc1ccc(-c2nc(-c3cccc4nccn34)no2)cc1C(F)(F)F)C(F)(F)F (centres unmarked) [Example 59]
2.1	CC(Oc1ccc(-c2nc(-c3ccnc4[nH]ccc34)no2)cc1C(F)(F)F)C(F)(F)F (centres unmarked) [Example 60]
3.7	CC(Oc1ccc(-c2nc(-c3cccc4[nH]ccc34)no2)cc1C(F)(F)F)C(F)(F)F (centres unmarked) [Example 67]
5.9	NC(=O)Cn1ccc2c(-c3noc(-c4ccc(C5CCCC5)c(C(F)(F)F)c4)n3)cccc21 [Example 81]
5.4	NC(=O)Cn1ccc2c(-c3noc(-c4cnc(OC(CF)CF)c(Cl)c4)n3)cccc21 [Example 143]
3.2	Cc1cc(-c2nc(-c3cccc4c3ccn4CC(N)=O)no2)ccc1O[C@@H](C)C(F)(F)F [Example 147]
11	CC(Oc1ccc(-c2nc(-c3cccc4c3ccn4C)no2)cc1C(F)(F)F)C(F)(F)F (centres unmarked) [Example 151]
7.6	CC(Oc1ccc(-c2nc(-c3cccc4c3CCN4C)no2)cc1C(F)(F)F)C(F)(F)F (centres unmarked) [Example 152]
1.8	NC(=O)Cn1ccc2c(-c3noc(-c4ccc(OC(CF)CF)c(C(F)(F)F)c4)n3)cccc21 [Example 158]
1.9	CC(Oc1ccc(-c2nc(-c3cccc4c3ccn4CC(N)=O)no2)cc1C#N)C(F)(F)F (centres unmarked) [Example 163]
2.8	CC(Oc1ccc(-c2nc(-c3cccc4c3ccn4CC(N)=O)no2)cc1Cl)C(F)(F)F (centres unmarked) [Example 164]
4.3	C[C@H](Oc1ncc(-c2nc(-c3cccc4c3ccn4CC(N)=O)no2)cc1Cl)C(F)(F)F [Example 173]
4.7	CC(Oc1ccc(-c2nc(-c3cccc4c3ccn4CC(N)=O)no2)cc1C(F)(F)F)C(F)(F)F (centres unmarked) [Example 181]
4.2	COCC(=O)n1ccc2c(-c3noc(-c4ccc(OC(C)C(F)(F)F)c(C(F)(F)F)c4)n3)cccc21 (centres unmarked) [Example 182]
6.8	Cc1cc(-c2nc(-c3cccc4c3ccn4CC(=O)NCCO)no2)ccc1O[C@@H](C)C(F)(F)F [Example 193]
2	C[C@H](Oc1ccc(-c2nc(-c3cccc4c3ccn4CC(=O)NCCO)no2)cc1C(F)(F)F)C(F)(F)F [Example 194]
5.3	CC(C)Oc1ccc(-c2nc(-c3cccc4c3ccn4CC(=O)NCCO)no2)cc1C(F)(F)F [Example 196]
3.3	O=C(Cn1ccc2c(-c3noc(-c4ccc(OC(CF)CF)c(Cl)c4)n3)cccc21)NCCO [Example 197]
3.6	C[C@@H](Oc1ccc(-c2nc(-c3ccc4[nH]cnc4c3)no2)cc1Cl)C(F)(F)F [Example 200]

Second part, the molecule before the results:

Structure (SMILES)	EC50 [nM]
C[C@H](Oc1ccc(-c2nc(-c3ccc4[nH]cnc4c3)no2)cc1C(F)(F)F)C(F)(F)F.Cl [Ex 119]	4.3
C[C@H](Oc1ccc(-c2nc(-c3ccc4[nH]cnc4c3)no2)cc1Cl)C(F)(F)F.Cl [Ex 199]	5
Cc1nc2cc(-c3noc(-c4ccc(OC(C)C(F)(F)F)c(C(F)(F)F)c4)n3)ccc2[nH]1 (centres unmarked) [Example 2, 2-methyl-5-{5-[3-(trifluoromethyl)-4-(2,2,2-trifluoro-1-methylethoxy)phenyl]-1,2,4-oxadiazol-3-yl}-1H-benzimidazole hydrochloride]	13
CC(Oc1ccc(-c2nc(-c3ccc4[nH]c(CCS(C)(=O)=O)nc4c3)no2)cc1C(F)(F)F)C(F)(F)F (centres unmarked) [Example 23, 2-[2-(methylsulfonyl)ethyl]-5-{5-[3-(trifluoromethyl)-4-(2,2,2-trifluoro-1-methylethoxy)phenyl]-1,2,4-oxadiazol-3-yl}-1H-benzimidazole hydrochloride]	6.8
Cc1c(-c2noc(-c3ccc(OC(C)C(F)(F)F)c(C(F)(F)F)c3)n2)ccc2[nH]cnc12 (centres unmarked) [Example 37]	5.4
CC(Oc1ccc(-c2nc(-c3ccc4[nH]cnc4c3)no2)cc1C(F)(F)F)C(F)(F)F (centres unmarked) [Example 48]	6.5
CC(Oc1ccc(-c2nc(-c3ccc4[nH]c(N)nc4c3)no2)cc1C(F)(F)F)C(F)(F)F (centres unmarked) [Example 51]	13
CC(Oc1ccc(-c2nc(-c3ccc4[nH]cnc4c3)no2)cc1Cl)C(F)(F)F (centres unmarked) [Example 53]	5.8
CC(Oc1ccc(-c2nc(-c3ccc4nc[nH]c4c3)no2)cc1Br)C(F)(F)F (centres unmarked) [Example 64]	5.7
CC(Oc1ccc(-c2nc(-c3ccc4cn[nH]c4c3)no2)cc1C(F)(F)F)C(F)(F)F (centres unmarked) [Example 65]	4
CC(Oc1ccc(-c2nc(-c3ccc4nc[nH]c4c3)no2)cc1C(F)F)C(F)(F)F (centres unmarked) [Example 87]	3.7
C=CCOc1ccc(-c2nc(-c3ccc4[nH]cnc4c3)no2)cc1C(F)(F)F [Example 106]	8.7
FC(F)COc1ccc(-c2nc(-c3ccc4[nH]cnc4c3)no2)cc1C(F)(F)F [Example 110]	6.2
C[C@@H](Oc1ccc(-c2nc(-c3ccc4[nH]cnc4c3)no2)cc1C(F)(F)F)C(F)(F)F [Example 120]	4.6
FC(F)(F)c1cc(-c2nc(-c3ccc4nc[nH]c4c3)no2)ccc1Oc1ccccc1 [Example 121]	12

Test system: number of the lymphocytes in peripheral blood
Assay: Evaluation of peripheral blood lymphopenia in rat
Format: in vivo
Conditions: Rattus norvegicus, Lymphocyte, po, 24 h, read-out: ED50 value after 24 hours
Experimental: 2) Evaluation of Peripheral Blood Lymphopenia in Rat
The peripheral blood lymphopenia in rat was measured at 24 hours after oral administration in the following manner. Six- to ten-week-old male Lewis rats (Japan Charles river laboratories) were randomly divided into the groups (n=3), and the compound of the present invention was suspended in 0.5% methyl cellulose-containing distilled water, and orally administered with a sonde. At 24 hours after administration, under ether anesthesia, 0.2 ml of blood was collected from ocular fundus. To the blood sample were immediately added EDTA/4K and heparin to prevent clotting, and the number of the lymphocytes in blood was measured with an automatic haematology analyzer (Sysmex Corp.; XT-2000i). For the reduction of the number of the lymphocytes in peripheral blood by the compound of the present invention, the percentage with the number of the lymphocytes in groups administered with 0.5% methyl cellulose-containing distilled water being set at 100%, as performed at the same time was used, and the dose to cause 50% reduction of the number of the lymphocytes in peripheral blood by administration of the compound of the present invention was defined an ED50 value (mg/kg).

Structure (SMILES)	ED50 [mg/kg]
CC(Oc1ccc(-c2nc(-c3cccnc3N)no2)cc1C(F)(F)F)C(F)(F)F (centres unmarked) [Comparative Compound 2]	8.8

Same assay, conditions: Rattus norvegicus, Lymphocyte; male Lewis rats, oral administration, 50% reduction of the number of lymphocytes in peripheral blood at 24 hours after administration; read-out: ED50 value after 24 hours

Structure (SMILES)	ED50 [mg/kg]
CNc1ncccc1-c1noc(-c2ccc(OC(C)C(F)(F)F)c(C(F)(F)F)c2)n1 (centres unmarked) [Comparative Compound 1]	1.4
Cc1ccc(Cl)cc1-c1noc(-c2ccc(OC(C)C(F)(F)F)c(C(F)(F)F)c2)n1 (centres unmarked) [Comparative Compound 3]	3.7
CNc1ncccc1-c1noc(-c2ccc(O[C@@H](C)C(F)(F)F)c(Cl)c2)n1.Cl [Comparative Compound 4]	> 10
CNc1ncccc1-c1noc(-c2ccc(OC(C)C(F)(F)F)c(Cl)c2)n1.Cl (centres unmarked) [Comparative Compound 5]	> 10
C[C@H](Oc1ccc(-c2nc(-c3ccc4[nH]cnc4c3)no2)cc1C(F)(F)F)C(F)(F)F.Cl [Ex 119]	0.071
C[C@H](Oc1ccc(-c2nc(-c3ccc4[nH]cnc4c3)no2)cc1Cl)C(F)(F)F.Cl [Ex 199]	0.26

Same assay, conditions: rat peripheral blood lymphopenia, 24 hours after oral administration

Structure (SMILES)	ED50 value after 24 hours, conclusion in words (persistence)
C[C@H](Oc1ccc(-c2nc(-c3ccc4[nH]cnc4c3)no2)cc1C(F)(F)F)C(F)(F)F.Cl [Ex 119]	high ED50 value even after 24 hours, indicating persistence
C[C@H](Oc1ccc(-c2nc(-c3ccc4[nH]cnc4c3)no2)cc1Cl)C(F)(F)F.Cl [Ex 199]	high ED50 value even after 24 hours, indicating persistence
